# Values joined by “and” are separate entries in the source; they are usually repeats but may differ in a detail not shown here. Equal entries are not always repeated.
# Legend:
# Assay type in all cases: in vivo
# [1] = Barium (BaSO4) passing into the manure of chickens; settings: for Amount of Barium, % found in manure: 0.093% in feed
# Description: This example illustrates a determination of the maximum concentration of any active agent that will pass into the manure of chickens.
# Briefly, chicken feed was formulated using a pulverized cattle bolus which contained barium in the form of BaSO4.
# [2] = Enteric Matrix/Coating of Methoprene Feed Through Study in chickens; settings: Feed Rate 23.8 ppm
# Description: This example illustrates a study of methoprene versus enteric coated methoprene. The results below indicate that there is no difference in % recovery between technical grade methoprene and enteric coated methoprene or matrix treated methoprene.
# [3] = Methoprene found in manure of cats fed treated cat food; settings: for Calculated Methoprene (ppm) in manure: cats Q, S, T
# Description: This example illustrates a study in cats comparing an inventive formulation containing lignin-methoprene complexes with a formulation containing free methoprene.
# Three cats were fed the formulations for a week and their manure was tested every 24 hours.
# [4] = Methoprene found in manure of cows fed treated feed as top dressing; settings: Average of Day 1-Day 10
# Description: This example illustrates a study in cattle comparing an inventive formulation containing a lignin-methoprene complex with a formulation containing free methoprene.
# Four cows were fed the formulations for eleven days and their manure was tested every 24 hours.
# [5] = Methoprene found in manure of horses fed treated feed as top dressing; settings: Average of Day 0-Day 10
# Description: This example illustrates a study in horses comparing an inventive formulation containing a lignin-methoprene complex with a formulation containing free methoprene.
# Four horses were fed the formulations for eleven days and their manure was tested every 24 hours.
# [6] = horse Bettor Lad, AI fed 8.94 ppm
smiles,measurement,setting,value
"O=S(=O)([O-])[O-].[Ba+2] [Barium, BaSO4]",% of initial BaSO4 found in manure,[1]; 4 hr.,1.78%
same,"Amount of Barium, % found in manure",[1]; 4 hr. after feeding,0.00165%
same,% of initial BaSO4 found in manure,[1]; 24 hr.,48.90%
same,"Amount of Barium, % found in manure",[1]; 24 hr. after feeding,0.0455%
same,% of initial BaSO4 found in manure,[1]; 48 hr.,59.90%
same,"Amount of Barium, % found in manure",[1]; 48 hr. after feeding,0.0557%
same,% of initial BaSO4 found in manure,[1]; 72 hr.,50.60%
same,"Amount of Barium, % found in manure",[1]; 72 hr. after feeding,0.0471%
"COC(C)(C)CCCC(C)C/C=C/C(C)=C/C(=O)OC(C)C (stereo not drawn) [free methoprene, methoprene]",% Recovery,[2],12.22%
same,Manure Rate ppm (methoprene),[2]; feed Egg Buster,2.91 ppm
same,Day 1 Avg. methoprene in manure,"[3]; cat food @ 36.2 ppm, 24 hr",0.63 ppm
same,Day 1 Avg. methoprene recovered in manure (%),"[3]; cat food @ 36.2 ppm, 24 hr",(1.7%)
same,Day 2 Avg. methoprene in manure,"[3]; cat food @ 36.2 ppm, 48 hr",2.2 ppm
same,Day 2 Avg. methoprene recovered in manure (%),"[3]; cat food @ 36.2 ppm, 48 hr",(6.1%)
same,Day 3 Avg. methoprene in manure,"[3]; cat food @ 36.2 ppm, 72 hr",1.8 ppm
same,Day 3 Avg. methoprene recovered in manure (%),"[3]; cat food @ 36.2 ppm, 72 hr",(5.0%)
same,Day 4 Avg. methoprene in manure,"[3]; cat food @ 36.2 ppm, 96 hr",1.9 ppm
same,Day 4 Avg. methoprene recovered in manure (%),"[3]; cat food @ 36.2 ppm, 96 hr",(5.2%)
same,Calculated Methoprene (ppm) in manure,"[3]; cat food @ 36.2 ppm, Day 0 (0 hr)",0 ppm
same,Calculated Methoprene (ppm) in manure,"[3]; cat food @ 36.2 ppm, Day 1 (24 hr), listed as Free Methoprene Lot # 491-166",0.6 ppm and 0.7 ppm
same,Calculated Methoprene (ppm) in manure,"[3]; cat food @ 36.2 ppm, Day 2 (48 hr), listed as Free Methoprene Lot # 491-166",2.4 ppm and 2.5 ppm and 1.6 ppm
same,Calculated Methoprene (ppm) in manure,"[3]; cat food @ 36.2 ppm, Day 3 (72 hr), listed as Free Methoprene Lot # 491-166",2.0 ppm and 1.5 ppm
same,amount of methoprene recovered from the manure of cats,[3]; range of daily averages Day 1-Day 4,1.7-6.1%
same,AI manure ppm,"[4]; cow 10 R/W, AI fed 8.94 ppm",0.16 ppm
same,Percent pass through,"[4]; cow 10 R/W, AI fed 8.94 ppm",1.8%
same,AI manure ppm,"[4]; cow 16 Black, AI fed 12.58 ppm",0.35 ppm
same,Percent pass through,"[4]; cow 16 Black, AI fed 12.58 ppm",2.8%
same,Avg. % pass through by Group,"[4]; cows, two per group",2.3%
same,AI manure ppm,[5]; [6],1.29 ppm
same,Percent pass through,[5]; [6],14.4%
same,AI manure ppm,"[5]; horse Dancer, AI fed 8.61 ppm",1.30 ppm
same,Percent pass through,"[5]; horse Dancer, AI fed 8.61 ppm",15.1%
same,Avg. % pass through by Group,"[5]; horses, two per group",14.75%
